Test results reported in PMC8548355 (Medicinal Chemistry Research, 2021).
Values after ≈ are worked out from the molar mass of the structure shown.

Columns and labels:
S. aureus ATCC 29213 [1] = test: Drug interaction of 22 with FDA-approved drugs, checkerboard method; format: cell-based, Staphylococcus aureus
E. coli ATCC 25922 = test: MIC by broth microdilution against E. coli ATCC 25922; format: cell-based; settings: Escherichia coli, ATCC25922, read-out: MIC against E. coli ATCC 25922
S. aureus ATCC 29213 [2] = test: MIC by broth microdilution against S. aureus ATCC 29213; format: cell-based, Staphylococcus aureus; settings: for MIC: Staphylococcus aureus, ATCC29213, read-out: MIC against S. aureus ATCC 29213, broth microdilution, 37 °C, 16–18 h
K. pneumoniae BAA 1705 = test: MIC by broth microdilution against K. pneumoniae BAA 1705; format: cell-based; settings: Klebsiella pneumoniae, BAA1705, read-out: MIC against K. pneumoniae BAA 1705
A. baumannii BAA 1605 = test: MIC by broth microdilution against A. baumannii BAA 1605; format: cell-based; settings: Acinetobacter baumannii, BAA1605, read-out: MIC against A. baumannii BAA 1605

SMILES | MIC of drug in the presence of “22” “B” (S. aureus ATCC 29213 [1]; S. aureus ATCC 29213, checkerboard, in combination with 22) | MIC (S. aureus ATCC 29213 [1]; Staphylococcus aureus, ATCC29213, 24 h, read-out: MIC (drug alone)) | MIC (E. coli ATCC 25922) | MIC (S. aureus ATCC 29213 [2]) | MIC (K. pneumoniae BAA 1705) | MIC (A. baumannii BAA 1605) | MIC against S. aureus ATCC 29213 (S. aureus ATCC 29213 [2]; broth microdilution, 37 °C, 16–18 h) | Inference (drug interaction) (S. aureus ATCC 29213 [1]; combination of 22 with the drug, S. aureus ATCC 29213)
CC(C)(O/N=C(\C(=O)N[C@@H]1C(=O)N2C(C(=O)[O-])=C(C[n+]3ccccc3)CS[C@H]12)c1csc(N)n1)C(=O)O [Ceftazidime] | 16 µg/mL | 16 µg/mL |  |  |  |  |  | No interaction
O=C(Nc1ccccc1)c1cccc(Cl)c1 [Compound 4, N-(phenyl)-3-chlorobenzamide] |  |  | > 64 µg/mL | > 64 µg/mL | > 64 µg/mL | > 64 µg/mL |  | 
O=C(Nc1ccccc1)c1ccccc1O [Compound 5, N-(phenyl)-2-hydroxybenzamide] |  |  | > 64 µg/mL | 64 µg/mL (≈ 300 µM) | > 64 µg/mL | > 64 µg/mL |  | 
O=C(Nc1ccccc1)c1cc(Cl)ccc1O [Compound 6, 5-Chloro-N-(phenyl)-2-hydroxy-benzamide] |  |  | > 64 µg/mL | 8 µg/mL (≈ 32.3 µM) | > 64 µg/mL | > 64 µg/mL |  | 
O=C(Nc1ccc(F)c(Cl)c1)c1ccccc1O [Compound 13, N-(3ʹ-chloro-4ʹ-fluorophenyl)-2-hydroxybenzamide] |  |  | > 64 µg/mL | 4 µg/mL (≈ 15.1 µM) | > 64 µg/mL | > 64 µg/mL |  | 
O=C(Nc1ccc(F)c(Cl)c1)c1cc(Cl)ccc1O [Compound 14, 5-Chloro-N-(3ʹ-chloro-4ʹ-fluorophenyl)-2-hydroxybenzamide] |  |  |  | 0.5 µg/mL (≈ 1.67 µM) |  |  |  | 

Continued, in another order:

MIC of drug in the presence of “22” “B” (S. aureus ATCC 29213 [1]; S. aureus ATCC 29213, checkerboard, in combination with 22) | MIC (S. aureus ATCC 29213 [1]; Staphylococcus aureus, ATCC29213, 24 h, read-out: MIC (drug alone)) | MIC (E. coli ATCC 25922) | MIC (S. aureus ATCC 29213 [2]) | MIC (K. pneumoniae BAA 1705) | MIC (A. baumannii BAA 1605) | MIC against S. aureus ATCC 29213 (S. aureus ATCC 29213 [2]; broth microdilution, 37 °C, 16–18 h) | SMILES | Inference (drug interaction) (S. aureus ATCC 29213 [1]; combination of 22 with the drug, S. aureus ATCC 29213)
 |  | > 64 µg/mL | > 64 µg/mL | > 64 µg/mL | > 64 µg/mL |  | O=C(Nc1ccccc1)c1ccccc1 [Compound 3, N-phenylbenzamide] | 
 |  | > 64 µg/mL |  | > 64 µg/mL | > 64 µg/mL |  | O=C(Nc1ccc(F)cc1)c1ccccc1O [Compound 7, N-(4ʹ-fluorophenyl)-2-hydroxybenzamide] | 
 |  | > 64 µg/mL | 2 µg/mL (≈ 7.53 µM) | > 64 µg/mL | > 64 µg/mL |  | O=C(Nc1ccc(F)cc1)c1cc(Cl)ccc1O [Compound 8, 5-Chloro-N-(4ʹ-fluorophenyl)-2-hydroxybenzamide] | 
 |  | > 64 µg/mL |  | > 64 µg/mL | > 64 µg/mL |  | O=C(Nc1ccccc1F)c1ccccc1O [Compound 9, N-(2ʹ-fluorophenyl)-2-hydroxybenzamide] | 
 |  | > 64 µg/mL | 4 µg/mL (≈ 15.1 µM) | > 64 µg/mL | > 64 µg/mL |  | O=C(Nc1ccccc1F)c1cc(Cl)ccc1O [Compound 10, 5-Chloro-N-(2ʹ-fluorophenyl)-2-hydroxybenzamide] | 
 |  | > 64 µg/mL |  | > 64 µg/mL | > 64 µg/mL |  | O=C(Nc1ccc(F)c(F)c1)c1ccccc1O [Compound 11, N-(3ʹ,4ʹ-difluorophenyl)-2-hydroxybenzamide] | 
 |  | > 64 µg/mL |  | > 64 µg/mL | > 64 µg/mL | 0.5 µg/mL (≈ 1.76 µM) | O=C(Nc1ccc(F)c(F)c1)c1cc(Cl)ccc1O [Compound 12, 5-Chloro-N-(3ʹ,4ʹ-difluorophenyl)-2-hydroxybenzamide] | 
